This note sets out measurements from US20250018014A1, “METHOD FOR TREATING AND/OR PREVENTING REGNASE-1-RELATED DISEASE” (OSAKA UNIVERSITY, priority 2018, published 2025).

Numbering of substitutions follows the chain as printed. Residues, ends and D or L forms follow the SMILES beside them. No end group written: not given here.

The target in test [1] is T1, FL_Reg1 (full-length human Regnase-1) phosphorylation by TBK1 (Homo sapiens, UniProt Q5D1E8).
T1 construct: made in house; host or cells: Expi293 cells
T1 sequence (Q5D1E8 1-599): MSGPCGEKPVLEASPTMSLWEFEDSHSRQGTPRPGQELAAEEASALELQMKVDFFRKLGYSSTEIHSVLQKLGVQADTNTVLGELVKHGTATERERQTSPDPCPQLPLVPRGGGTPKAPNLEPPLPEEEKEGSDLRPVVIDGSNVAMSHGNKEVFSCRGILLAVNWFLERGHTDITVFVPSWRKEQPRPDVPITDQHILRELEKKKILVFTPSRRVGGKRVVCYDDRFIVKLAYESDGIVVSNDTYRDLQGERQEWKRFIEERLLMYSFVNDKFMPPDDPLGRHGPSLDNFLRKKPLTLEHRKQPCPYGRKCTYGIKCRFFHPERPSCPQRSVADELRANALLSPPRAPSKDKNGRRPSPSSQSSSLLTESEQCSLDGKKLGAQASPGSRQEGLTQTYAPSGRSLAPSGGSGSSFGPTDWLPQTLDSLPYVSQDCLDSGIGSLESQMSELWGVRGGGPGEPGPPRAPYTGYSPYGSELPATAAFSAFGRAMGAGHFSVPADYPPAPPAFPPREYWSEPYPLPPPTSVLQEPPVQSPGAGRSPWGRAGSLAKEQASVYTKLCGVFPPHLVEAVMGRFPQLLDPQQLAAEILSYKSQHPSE
The test can be described thus: Regnase-1 phosphorylation inhibition by compounds (AlphaScreen), TBK1, full-length Regnase-1. The format is biochemical. Particulars: Table 13; phosphorylation by TBK1; read-out: Phosphorylation inhibition FL_Reg1, 50% inhibition concentration (TBK1). The essentials:
(§1)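 FLAG/BirA-tagged human Regnase-1 constructs (full-length, 1–546 or 301–599), expressed in Expi293 cells, were used at 2 nM with compound and phosphorylated by IKKβ or TBK1 with 10 μM ATP, DTT, vanadate and MnCl2 for 2 h at room temperature. Phospho-Regnase-1 was read by AlphaScreen; IC50 came from % inhibition curves normalised to DMSO and Regnase-1-alone signals.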
(In general: In Alpha technology, singlet oxygen from a donor bead excites a nearby acceptor bead.)

Test [2] concerns the target T2, binding between TBK1 and full-length Regnase-1 (FL_Reg1) (Homo sapiens, UniProt Q5D1E8).
T2 construct: made in house; host or cells: Expi293 cells
T2 sequence (Q5D1E8 1-599): T1 sequence (Q5D1E8 1-599)
The test can be described thus: Inhibition of kinase-Regnase-1 binding by the compounds (AlphaScreen), TBK1. The note with it: Table 13; binding between TBK1 and Regnase-1; read-out: Binding inhibition FL_Reg1, 50% inhibition concentration (TBK1). Put shortly: (§2)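 Read-out was AlphaScreen luminescence using anti-FLAG acceptor and glutathione donor beads, with Regnase-1 alone set as 100% and DMSO as 0% inhibition to fit IC50. Compound was premixed with 2.5 nM full-length human Regnase-1 (Expi293-expressed, FLAG/BirA-tagged). 2.5 nM TBK1 or IKKβ was then added for 2 h at room temperature.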

The target in a further test is T3, FL_Reg1 (Homo sapiens, UniProt Q5D1E8).
T3 construct: made in house; host or cells: Expi293 cells
T3 sequence (Q5D1E8 1-599): T1 sequence (Q5D1E8 1-599)
Put plainly: Binding of Regnase-1 and peptide compounds (affinity mass analysis, SEC then LC/MS). The note with it: 1 μM FL_Reg1, final compound concentration 1 μM, 23° C. for one hour. The method, then:
To a 96 PP plate (Greiner bio-one, 651201) coated with lipidure (Lipidure-CM5206) (NOF CORPORATION, 71S42000001), 2 μL of Tris-Buffer (25 mM Tris-NaOH pH 8.3, 300 mM NaCl, 1 mM DTT, 1 mM EDTA, 1% DMSO) was dispensed, and then 1 mM DMSO sample was added at 20 nL each with a LABCYTE ECHO (registered trademark) acoustic dispensing system. Furthermore, 18 μL of protein prepared at 1 μM FL_Reg1 in advance using Tris-Buffer was added (final compound concentration: 1 μM), and the mixture was incubated in the dark at 23° C. for one hour. Then, to a 96-well, 400 μL, Hydrophilic PVDF 0.45 μm, Long drip (Harvard, 74-5556), 100 μL of P-2, Fine (Bio-Rad, 1504114) which had been swollen in advance was added, and conditioning was performed by centrifuging several times at 2000× G for two minutes using the buffer. Next, 20 μL of the sample after incubation was added to the conditioned 96-well, 400 μL, Hydrophilic PVDF 0.45 μm, Long drip, and SEC treatment was performed by centrifugation at 2000×G for two minutes. To the liquid from SEC, 32 μL of acetonitrile (LC/MS grade, FUJIFILM Wako Pure Chemical Industries, Ltd.) supplemented with 0.1% formic acid (LC/MS grade, 067-04531, FUJIFILM Wako Pure Chemical Industries, Ltd.) was added, and this was centrifuged at 1800×G for five minutes, and the supernatant was used as an analysis sample for LC/MS measurement. Binding to Regnase-1 was detected for all of the peptide compounds, PP1 to PP25.

Test [3] addresses T4, binding between IKKβ and full-length Regnase-1 (FL_Reg1) (Homo sapiens, UniProt Q5D1E8).
T4 construct: made in house; host or cells: Expi293 cells
T4 sequence (Q5D1E8 1-599): T1 sequence (Q5D1E8 1-599)
Put plainly: Inhibition of kinase-Regnase-1 binding by the compounds (AlphaScreen), IKKβ. The note with it: Table 14; binding between IKKβ and Regnase-1; read-out: Binding inhibition FL_Reg1, 50% inhibition concentration (IKKβ). The essentials: as §2

In test [4] the target is T5, FL_Reg1 (full-length human Regnase-1) phosphorylation by IKKβ (Homo sapiens, UniProt Q5D1E8).
T5 construct: made in house; host or cells: Expi293 cells
T5 sequence (Q5D1E8 1-599): T1 sequence (Q5D1E8 1-599)
The test can be described thus: Regnase-1 phosphorylation inhibition by compounds (AlphaScreen), IKKβ, full-length Regnase-1. It counts as biochemical. Particulars: Table 14; phosphorylation by IKKβ; read-out: Phosphorylation inhibition FL_Reg1, 50% inhibition concentration (IKKβ). Put shortly: as §1

In test [5] the target is T6, Peptide 2 (AFPPREYWSEPYPLPPPTC-NH2), biotin-conjugated (human, also: biotin-conjugated, position not given here).
T6 peptide: AFPPREYWSEPYPLPPPTC-NH2
Put plainly: flow cytometry of streptavidin beads carrying the biotinylated antigen, anti-rabbit IgG Alexa488. How it is done: These beads were mixed with each anti-Regnase-1 antibody, and they were allowed to react. Thereafter, Anti-Rabbit IgG1 Alexa488 (molecular probes, A21244) was mixed and reacted, and analysis was performed with iQue screener PLUS (intellicyt). Data was analyzed with FlowJo ver10.
In general terms: In flow cytometry, cells or beads pass a laser one at a time.

Consider `CC(C)[C@@H]1NC(=O)[C@H](Cc2c[nH]c3ccccc23)NC(=O)[C@H](CCCCN)NC(=O)[C@H](Cc2c[nH]c3ccccc23)NC(=O)[C@H](CCC(N)=O)NC(=O)[C@H](CCCNC(=N)N)NC(=O)[C@H](Cc2ccccc2)NC(=O)[C@H](CCCNC(=N)N)NC(=O)[C@H](C)N(C)C(=O)C[C@@H](C(=O)N2CCCC2)NC(=O)[C@@H]2CCCN2C(=O)[C@H](Cc2ccc(O)cc2)NC1=O` [PP13] (HELM PEPTIDE1{[meA].R.F.R.Q.W.K.W.V.Y.P.D.[C1CCN([*:1])C1]}$PEPTIDE1,PEPTIDE1,1:R1-12:R3$$$V2.0), for which the IC50 turned out to be 8.4 µM in test [1], 13.8 µM in test [2], 16.9 µM in test [3] and 3.6 µM in test [4]. Also, the “AS-MS ratio(%)” value on FL_Reg1 worked out at 0.1%.

B1: REB0007 (antibody, V domains shown)
VH: QEQLEESGGDLVKPEGSLTLTCTASGFSFNSRYWICWVRQAPGKGLEWIGCIVSGDSNTYYASWAKGRFTISKTSSTTVTLQMTSLTAADTATYFCARWYTSSRPGLWGPGTLVTVSS
VL: DVVMTQTPASVSEPVGGTVTIKCQASQSISSYLSWYQQKPGQPPKLLIYSATNLASGVSSRFKGSRFGTEFTLTISDLECDDAATYYCQCSYYVSGFAFGGGTEVVVKG
notes: Cloned from immunized rabbits, expressed in HEK293 cells, purified by Protein A; also called anti-Regnase-1 antibody; anti-non-phosphorylated Regnase-1 peptide antibody
As for B1, the binding result in test [5] is listed as “binds”.

B2: REB0022 (antibody, V domains shown)
VH: QEQLEESGGDLVKPEGSLTLTCTASGGSFSSRYWMCWVRQAPGKGLEWIACIVIGDRNNYYASWAKGRFTISKTSSTTVTLQMTSLTAADTATYFCARWHSSTAPSLWGPGTLVTVSS
VL: B1 VL with K22N, S50K, T52S, N53T, R66G, F67S, D81A, A98V
notes: as for B1
As to B2, the binding result in test [5] is given as “binds”.

B3: REB0014 (antibody, V domains shown)
VH: QSLEESGGGLVKPGGTLTLTCKASGIDFSSYYYMCWVRQAPGKGLEWIACIYSGDGSSYYVSWANGRFTISKTSSATVTLQMTSLTAADTATYFCARDLGNLWGPGTLVTVSS
VL: QVLTQTPASVSAAVGGTVTINCQASQSVYKNSGLSWFQQKPGQSPKRLIYSASTLDSGVPSRFKGSGSGTQFTLTISDVQCDDAATYYCLGIYVCSSVDCGAFGGGTEVVVKG
notes: as for B1
With B3, the binding result in test [5] is recorded as “binds”.
